Ends that are not written are not given here. * marks the point of attachment. Biotin = O=C1N[C@H]2[C@H](CS[C@H]2CCCCC(=O)*)N1
What was measured:
[1] = tested on: antibodies in sera from HCV-seropositive donors; assay: ELISA with HCV antibody-positive sera (biotinylated peptides on streptavidin- or avidin-coated plates, unbiotinylated peptides coated directly); type: binding, human; details: for PEPTIDE ELISA (O.D.): Table 12, biotinylated 20-mers
Protocol: (§1) Where peptides were to be coated directly, stock solutions of the peptides were diluted in sodium carbonate buffer, pH 9.6 and used to coat polystyrene microtiter plates at a peptide concentration of 2 to 5 micrograms per milliliter for 1 hour at 37° C.
(§2) In cases where biotinylated peptides were to be evaluated, plates were first coated with streptavidin in sodium carbonate buffer, pH 9.6 at a concentration of 3 micrograms per milliliter for 1 hour at 37° C. The plates were then washed to remove excess, unbound protein. A working solution of the biotinylated peptide at 1 microgram per milliliter in sodium carbonate buffer was then added to the wells of the microtiter plate and incubated for 1 hours at 37° C.
(§3) Once the plates had been coated with antigen, any remaining free binding sites on the plastic were blocked with casein. After washing, a dilution of the appropriate antisera, usually 1:100, was added to the wells of the plates and incubated for 1 hour at 37° C.
(§4) After washing to remove unbound material, specific antibody binding was detected by incubating the plates with goat anti-human immunoglobulin antibodies conjugated to the enzyme horseradish peroxidase. Following removal of unbound conjugate by washing, a solution containing H2O2 and 3,3′,5,5′-tetramethylbenzidine was added.
(§5) Reactions were stopped after a suitable interval by addition of sulfuric acid. […] Absorbance measurements were made at a wavelength of 450 nanometers and all data are expressed as an optical density value at this wavelength.
The unbiotinylated peptides were adsorbed onto the wells of polystyrene microtiter plates at a concentration of 3 micrograms per milliliter.
The biotinylated peptides were bound at a concentration of 1 microgram per milliliter to streptavidin-coated microtiter plates. Sera known to contain antibodies to these peptides were used for the evaluation and were tested at a 20-fold dilution.
To investigate further the enhanced antibody recognition of biotinylated HCV peptides bound to streptavidin or avidin as compared to direct adsorption on plastic, the influence of peptide coating concentration was investigated. Three peptides (HCV peptides II, XI, and XVI) were coated in concentrations ranging from 10 nanograms per milliliter to 3 micrograms per milliliter in a volume of 200 microliters per microtiter plate well. For direct coating, the unbiotinylated versions of these peptides were used. The biotinylated versions of these peptides were used to coat wells to which streptavidin had previously been adsorbed. Sera known to contain antibodies to these peptides were used at a dilution of 1 to 100 to evaluate the magnitude of antibody binding.
(§6) Unbiotinylated HCV peptide I was coated directly onto the wells of a polystyrene ELISA plate at a concentration of 3 micrograms per milliliter in sodium carbonate buffer, pH 9.6. Biotinylated HCV peptide I was bound to streptavidin-coated wells using a stock solution containing the peptide at a concentration of 1 microgram per milliliter. The resulting plates were then incubated in parallel with a panel of sera from HCV-seropositive donors. […] Two of the sera (8326 and 8244) recognize the biotinylated version of this peptide far better than the unbiotinylated version. The specificity of the antibody reaction is also reflected by the low optical density values obtained for 5 serum samples from uninfected donors (F88, F89, F76, F136, and F6).
To determine how well biotinylated peptides would function in a mixture when bound to streptavidin- or avidin-coated plates, two mixtures were made of the N-terminally biotinylated versions of the HIV-1 peptides TM-HIV-1 (hereabove referred to as 1a.1) and V3-nm (hereabove referred to as 1b.4), the HIV-2 peptide TM-HIV-2 (hereabove referred to as 2a), and the hepatitis C virus peptides II, IX, and XVIII. […]

[2] = ELISA with seronegative / negative control sera (specificity); type: binding, human
Protocol: as §1, §2, §3, §4, §5, §6
To determine how well biotinylated peptides would function in a mixture when bound to streptavidin- or avidin-coated plates, two mixtures were made of the N-terminally biotinylated versions of the HIV-1 peptides TM-HIV-1 (hereabove referred to as 1a.1) and V3-nm (hereabove referred to as 1b.4), the HIV-2 peptide TM-HIV-2 (hereabove referred to as 2a), and the hepatitis C virus peptides II, IX, and XVIII. Mixture A contained each of the six biotinylated peptides at a concentration of 1 microgram per milliliter (6 micrograms per milliliter peptide, total) while in mixture B, each peptide was present at a concentration of 0.1 microgram per milliliter (0.6 microgram per milliliter peptide, total). The individual peptides were coated at a concentration of 1 microgram per milliliter. For purposes of comparison, mixtures A and B were also coated directly onto the wells of a microtiter plate. Samples from HIV-1, HIV-2, and HCV-seropositive donors were tested and compared to sera from seronegative blood donors. A cut-off absorbance value of 0.250 was used to determine whether a reaction was positive or negative. Absorbance values equal or greater than 0.250 were considered positive while absorbance values below this value were considered negative.

[3] = Table 7, serum 6378, HCV antibody-positive
[4] = Table 7, serum 8242, HCV antibody-positive
[5] = Table 7, serum 8243, HCV antibody-positive
[6] = Table 7, serum 8244, HCV antibody-positive
[7] = Table 7, serum 8248, HCV antibody-positive
[8] = Table 7, serum 8316, HCV antibody-positive
[9] = Table 7, serum 8318, HCV antibody-positive
[10] = Table 7, serum 8320, HCV antibody-positive
[11] = Table 7, serum 8326, HCV antibody-positive
[12] = Table 7, serum 8329, HCV antibody-positive
[13] = Table 7, serum 8330, HCV antibody-positive
[14] = Table 7, serum 8333, HCV antibody-positive
[15] = Table 7, serum 8334, HCV antibody-positive
[16] = Table 7, serum 8336, HCV antibody-positive
[17] = Table 7, serum 8344, HCV antibody-positive
[18] = Table 7, serum 8364, HCV antibody-positive
[19] = Table 7, serum 8374, HCV antibody-positive
[20] = Table 7, serum 8387, HCV antibody-positive
[21] = Table 7, serum F8, HCV antibody-negative
[22] = Table 7, serum F76, HCV antibody-negative
[23] = Table 7, serum F88, HCV antibody-negative
[24] = Table 7, serum F89, HCV antibody-negative
[25] = Table 7, serum F136, HCV antibody-negative

## RNTNRRPQDVKFPGGGQIVG
[1]; Table 4D, serum 8241, 20-fold dilution
  optical density (450 nm): 2.066
[1]; Table 4D, serum 8242, 20-fold dilution
  optical density (450 nm): 2.197
[1]; Table 4D, serum 8243, 20-fold dilution
  optical density (450 nm): 2.368
[1]; Table 4D, serum 8247, 20-fold dilution
  optical density (450 nm): 2.398
[1]; Table 4D, serum 8248, 20-fold dilution
  optical density (450 nm): 2.918
[1]; Table 4D, serum 8250, 20-fold dilution
  optical density (450 nm): 2.626
[1]; Table 4D, serum 8271, 20-fold dilution
  optical density (450 nm): 2.066
[1]; Table 4D, serum 8272, 20-fold dilution
  optical density (450 nm): 2.638
[1]; Table 4D, serum 8273, 20-fold dilution
  optical density (450 nm): 2.697
[1]; Table 4D, serum 8274, 20-fold dilution
  optical density (450 nm): 2.905
[1]; Table 4D, serum 8275, 20-fold dilution
  optical density (450 nm): 2.640
[1]; Table 4D, serum 8276, 20-fold dilution
  optical density (450 nm): 2.674
[1]; Table 4D, serum 8277, 20-fold dilution
  optical density (450 nm): 2.327
[1]; serum 0843
  PEPTIDE ELISA (O.D.): 2.368
[1]; serum 8240
  PEPTIDE ELISA (O.D.): 2.918
[1]; serum 8241
  PEPTIDE ELISA (O.D.): 2.066
[1]; serum 8242
  PEPTIDE ELISA (O.D.): 2.197
[1]; serum 8332
  PEPTIDE ELISA (O.D.): 2.054
[1]; serum 8339
  PEPTIDE ELISA (O.D.): 2.765
[1]; serum 8350
  PEPTIDE ELISA (O.D.): 2.135
[1]; serum 8377
  PEPTIDE ELISA (O.D.): 2.368
[1]; serum 8378
  PEPTIDE ELISA (O.D.): 2.369
[1]; serum 8388
  PEPTIDE ELISA (O.D.): 2.463
[2]; Table 4D, negative serum
  optical density (450 nm): 0.06

## H2N-Met-Ser-Thr-Ile-Pro-Lys-Pro-Gln-Arg-Lys-Thr-Lys-Arg-Asn-Thr-Asn-Arg-Arg-Pro-Gln-CONH2 (H-MSTIPKPQRKTKRNTNRRPQ-NH2) [HCV peptide I]
[1]; [3]
  optical density (450 nm): 2.161
[1]; [4]
  optical density (450 nm): 1.367
[1]; [5]
  optical density (450 nm): 2.211
[1]; [6]
  optical density (450 nm): 0.077
[1]; [7]
  optical density (450 nm): 2.042
[1]; [8]
  optical density (450 nm): 2.394
[1]; [9]
  optical density (450 nm): 2.385
[1]; [10]
  optical density (450 nm): 2.760
[1]; [11]
  optical density (450 nm): 0.525
[1]; [12]
  optical density (450 nm): 2.633
[1]; [13]
  optical density (450 nm): 1.985
[1]; [14]
  optical density (450 nm): 2.143
[1]; [15]
  optical density (450 nm): 2.271
[1]; [16]
  optical density (450 nm): 1.558
[1]; [17]
  optical density (450 nm): 1.878
[1]; [18]
  optical density (450 nm): 2.705
[1]; [19]
  optical density (450 nm): 1.070
[1]; [20]
  optical density (450 nm): 1.427
[2]; [21]
  optical density (450 nm): 0.000
[2]; [22]
  optical density (450 nm): 0.000
[2]; [23]
  optical density (450 nm): 0.000
[2]; [24]
  optical density (450 nm): 0.017
[2]; [25]
  optical density (450 nm): 0.006

## H2N-Met-Ser-Thr-Ile-Pro-Lys-Pro-Gln-Arg-Lys-Thr-Lys-Arg-Asn-Thr-Asn-Arg-Arg-Pro-Gln-Gly-Gly-Lys (Bio)-CONH2 (H-MSTIPKPQRKTKRNTNRRPQGGK(Biotin)-NH2; SMILES CC[C@H](C)[C@H](NC(=O)[C@@H](NC(=O)[C@H](CO)NC(=O)[C@@H](N)CCSC)[C@@H](C)O)C(=O)N1CCC[C@H]1C(=O)N[C@@H](CCCCN)C(=O)N1CCC[C@H]1C(=O)N[C@@H](CCC(N)=O)C(=O)N[C@@H](CCCNC(=N)N)C(=O)N[C@@H](CCCCN)C(=O)N[C@H](C(=O)N[C@@H](CCCCN)C(=O)N[C@@H](CCCNC(=N)N)C(=O)N[C@@H](CC(N)=O)C(=O)N[C@H](C(=O)N[C@@H](CC(N)=O)C(=O)N[C@@H](CCCNC(=N)N)C(=O)N[C@@H](CCCNC(=N)N)C(=O)N1CCC[C@H]1C(=O)N[C@@H](CCC(N)=O)C(=O)NCC(=O)NCC(=O)N[C@@H](CCCCNC(=O)CCCC[C@@H]1SC[C@@H]2NC(=O)N[C@@H]21)C(N)=O)[C@@H](C)O)[C@@H](C)O) [HCV peptide I carboxy-biotinylated]
[1]; [3]
  optical density (450 nm): 2.531
[1]; [4]
  optical density (450 nm): 2.389
[1]; [5]
  optical density (450 nm): 2.541
[1]; [6]
  optical density (450 nm): 1.399
[1]; [7]
  optical density (450 nm): 2.493
[1]; [8]
  optical density (450 nm): 2.541
[1]; [9]
  optical density (450 nm): 2.404
[1]; [10]
  optical density (450 nm): 2.762
[1]; [11]
  optical density (450 nm): 1.775
[1]; [12]
  optical density (450 nm): 2.672
[1]; [13]
  optical density (450 nm): 2.651
[1]; [14]
  optical density (450 nm): 2.545
[1]; [15]
  optical density (450 nm): 2.549
[1]; [16]
  optical density (450 nm): 2.016
[1]; [17]
  optical density (450 nm): 2.010
[1]; [18]
  optical density (450 nm): 2.705
[1]; [19]
  optical density (450 nm): 2.151
[1]; [20]
  optical density (450 nm): 2.628
[2]; [21]
  optical density (450 nm): 0.000
[2]; [22]
  optical density (450 nm): 0.022
[2]; [23]
  optical density (450 nm): 0.026
[2]; [24]
  optical density (450 nm): 0.001
[2]; [25]
  optical density (450 nm): 0.002

Source: patent US6667387B1, “HCV core peptides” (priority 1992, dated 2003)
